Data set [1] has as its system Zygosaccharomyces rouxii, Candida albicans and Aspergillus brasiliensis. The data set can be described thus: Efficacy of microbial preservation, Example 4, overall. It counts as cell-based. The settings on record: ascorbic acid 0.20-0.70 g/100 mL with sorbic acid 0.3 g/100 mL, pH 3.5.
The format of data set [2] is physicochemical. As for the experimental part: As already described in EP 0 439 030 and WO 2005/08467, pimobendan drug substance is insoluble in water: 1 g drug substance is soluble in more than 10,000 mL. At pH 7 the solubility of pimobendan is only about 0.1 mg per 100 mL.
The solubility of pimobendan in aqueous solutions is depends on the pH. […] However, the local tolerance and palatability as well as the chemical stability of such a formulation are not acceptable. This is due to the fact that the target dose would require a drug concentration in solution which can only be achieved by a pH of about pH 2.5 and lower. […] Accordingly, a pimobendan formulation comprising up to 1.5 mg/mL of pimobendan would need an increase in solubility at pH 7 by a factor of about 1000 to 1500, not achieved in prior art formulations for oral administration up to now.

The conditions of data set [3]: cited from earlier work.
Data set [4] in a line: Solubility of pimobendan in cyclodextrin solutions (FIG. 1-3). In kind it is physicochemical. As for the experimental part:
The last row of columns represents the reference control, which is the respective solution without preservative (“none”). […] FIG. 2 is a schematic diagram wherein the solubility of pimobendan is shown as a function of type and concentration of polymer, salt or complexation agent. In order to determine the degree of complexation, the effect of three different polymers, three different salts and one chelating agent on the solubility of pimobendan was tested. The pH of the solution was 4.5. Metolose is hydroxypropyl methylcellulose=HPMC=Hypromellose. Klucel ELF is hydroxypropyl cellulose=HPC. The number after the chemical name indicates the concentration of additive in % (m/V). FIG. 3 is a schematic diagram wherein the solubility of pimobendan is shown as a function of concentration of hydroxypropyl-ß-cyclodextrin and presence of sodium sorbate and hydroxypropyl methylcellulose (HPMC). Therefore, in FIG. 3 the effect of sodium sorbate and HPMC on the solubility of pimobendan was illustrated, and also the effect of concentration of hydroxypropyl-ß-cyclodextrin on the pimobendan solubility. Concentrations of sodium sorbate of 1.0% (m/V) and of HPMC of 0.1% (m/V) were used. The pH value was set to 4.5 using hydrochloric acid in all solutions.

For data set [5], the system named is E. coli, P. aeruginosa, S. aureus, C. albicans, A. brasiliensis. The data set can be described thus: Antimicrobial efficacy, Example 3, overall evaluation of Tables 6 and 7. The settings on record: solutions of Table 4. In kind it is cell-based. From the text: The testing criteria applied are those for evaluation of antimicrobial activity for oral preparations according to Pharm. Eur. 7 (tests at 14 days and 28 days). The acceptance criteria of the Ph. Eur. 7, Method 5.1.3 “Efficacy of Antimicrobial Preservation” USP 34, and Method <51> Antimicrobial Effectiveness Testing are listed in the following Table 2.

Data on three compounds can be found in patent US12357696B2, “Preserved etherified cyclodextrin derivatives containing liquid aqueous pharmaceutical composition” (Boehringer Ingelheim Vetmedica GmbH, priority 2013, dated 2025).

For `O=C1O[C@H]([C@@H](O)CO)C(O)=C1O` [ascorbic acid], the “efficacy of preservation versus concentration of antioxidant” value in data set [1] was “increasing efficacy of preservation with increasing concentration of antioxidant”.
For the compound `COc1ccc(-c2nc3ccc(C4=NNC(=O)CC4C)cc3[nH]2)cc1` (stereo not shown) [pimobendan, 4,5-dihydro-6-[2-(4-methoxyphenyl)-1H-benzimidazol-5-yl]-5-methyl-3(2H)-pyridazinone], the “solubility of pimobendan in aqueous solutions depending on pH” value in data set [2] was “significantly higher at pH 1 to 2.5 than at higher pH values”. Also, the solubility of pimobendan entry in data set [3] (pH 7) is recorded as “about 0.1 mg per 100 mL”. Besides, the “water in which 1 g drug substance is soluble” value in data set [3] (per 1 g drug substance, water) is on record as “more than 10,000 mL”. Besides, the “solubility of pimobendan as a function of pH value (FIG. 1)” value in data set [4] (25% (m/V) cyclodextrin, pH 3.5, 4.5, 5.5, 7, 9) is on record as “highest solubility of pimobendan occurs at pH=3.5”. For the same compound, the “solubility of pimobendan as a function of preservative (FIG. 1)” value in data set [4] (25% (m/V) cyclodextrin, versus reference control without preservative) is “highest pimobendan solubility is achieved with sodium sorbate”. The “solubility of pimobendan as a function of cyclodextrin type (FIG. 1)” value in data set [4] (25% (m/V) hydroxypropyl-ß- or hydroxypropyl-gamma-cyclodextrin) is on record as “more soluble with hydroxypropyl-ß-cyclodextrin than hydroxypropyl-gamma-cyclodextrin”. Also, in data set [4] (HPMC 0.1% (m/V), hydroxypropyl-ß-cyclodextrin, pH 4.5), the “solubility of pimobendan in presence of HPMC (FIG. 3)” value is recorded as “significantly increases”. In data set [4] (pH 4.5), the “solubility of pimobendan on addition of HPMC (FIG. 2)” value is given as “significant increase” and the “solubility of pimobendan on addition of salts or disodium edetate (FIG. 2)” value is given as “does not significantly increase”. In addition, in data set [4] (sodium sorbate 1.0% (m/V) and HPMC 0.1% (m/V), pH 4.5), the “solubility of pimobendan with both HPMC and sodium sorbate (FIG. 3)” value was “significantly increased”. Further, the “solubility of pimobendan in presence of sodium sorbate (FIG. 3)” value in data set [4] (sodium sorbate 1.0% (m/V), hydroxypropyl-ß-cyclodextrin, pH 4.5) is recorded as “significantly increases”.
For the compound `C/C=C/C=C/C(=O)O` [sorbic acid], the “antimicrobial efficacy (overall statement on Tables 6 and 7)” value in data set [5] is recorded as “good antimicrobial efficacy”.
